Consider eleven compounds from ChEMBL document CHEMBL1201862, “PubChem BioAssay data set” (2004).

The structures appear in SMILES notation.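 Results reflect a 48-hour exposure of cells in 96-well plates to compound at five concentrations. At the GI50, growth is halved.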 The source made the active and inactive calls. Cut-off read from the data, not from the text of the source: active = GI50 up to about 1.1 µM and inactive = higher.

Test systems include BT-549; CAKI-1; CCRF-CEM; DU-145; HCT-116; HCT-15; Hs-578T; KM12; MDA-MB-231; OVCAR-5; RPMI-8226; RXF 393; SF-268; SK-OV-3; T47D; TK-10; U-251; UACC-257; UO-31; SR.
What all share (test): NCI tumour cell line growth inhibition, 48 h

As for `Cc1nc2c(cc1C(=O)N/N=C/c1ccc([N+](=O)[O-])cc1)c(=O)n(C)c(=O)n2C`, the GI50 was 30.5 µM (inactive) in the test on BT-549; 51.8 µM (inactive) in the test on CAKI-1; > 100 µM (inactive) in the test with CCRF-CEM; 94.6 µM (inactive) with DU-145; 56.4 µM (inactive) in the test with HCT-116; over 100 µM with HCT-15. Also, the GI50 was 31.1 µM (inactive) in the test on Hs-578T; > 100 µM (inactive) with KM12; 22.1 µM (inactive) in the test on MDA-MB-231; > 100 µM (inactive) in the test on OVCAR-5; 96.6 µM (inactive) in the test on RPMI-8226; 18.6 µM (inactive) in the test on RXF 393. Besides, the GI50 is 25.4 µM (inactive) with SF-268; 39.4 µM (inactive) in the test with SK-OV-3; 80.4 µM (inactive) in the test on T47D; 54.3 µM (inactive) with TK-10; 19.2 µM (inactive) in the test on U-251; > 100 µM (inactive) in the test with UACC-257. For the same compound, the GI50 in the test on UO-31 is > 100 µM (inactive).
For the compound `CC(C)(C)OC(=O)NC(Cc1ccc(OC(C)(C)C)cc1)C(=O)N[C@H]1CC[C@H](C(=O)O)C1` (some centres undefined), the GI50 in the test on BT-549 is 45 µM (inactive); with CCRF-CEM, > 100 µM (inactive); with DU-145, > 100 µM (inactive); with HCT-116 it was > 100 µM (inactive); in the test with HCT-15, over 100 µM; in the test on Hs-578T it was > 100 µM (inactive). The GI50 in the test on KM12, in the test on MDA-MB-231, in the test with OVCAR-5, with RPMI-8226, in the test with SF-268 and in the test on SK-OV-3 was > 100 µM (inactive) in each case. Also, the GI50 in the test on SR was > 100 µM (inactive); in the test with T47D, > 10 µM (inactive); in the test with TK-10 it was > 100 µM (inactive); in the test on U-251, > 100 µM (inactive); in the test on UACC-257 it was > 100 µM (inactive).
On to `CC(=O)NNc1nc(C)c(C(/C=C/c2cccc([N+](=O)[O-])c2)=N/NC(=S)NN)s1`, for which the GI50 was > 100 µM (inactive) with BT-549; > 100 µM (inactive) in the test on CAKI-1; > 100 µM (inactive) in the test on CCRF-CEM; > 100 µM (inactive) in the test with DU-145; > 100 µM (inactive) with HCT-116; over 100 µM in the test on HCT-15. In addition, the GI50 in the test with Hs-578T, with KM12, in the test with MDA-MB-231, in the test on OVCAR-5, with RPMI-8226 and with RXF 393 was > 100 µM (inactive) in each case. The GI50 with SF-268, with SK-OV-3, in the test with T47D, in the test with TK-10, with U-251 and in the test on UACC-257 was > 100 µM (inactive) each time. Also, the GI50 with UO-31 was > 100 µM (inactive).
For `Clc1ccc(Nc2nn3c(CCCCCCCCc4nnc5sc(Nc6ccc(Cl)cc6)nn45)nnc3s2)cc1`, the GI50 was > 100 µM (inactive) in the test with BT-549; > 100 µM (inactive) in the test with CAKI-1; 17.6 µM (inactive) in the test on CCRF-CEM; > 100 µM (inactive) in the test with DU-145; > 100 µM (inactive) in the test with HCT-116; over 100 µM in the test with HCT-15. Moreover, the GI50 was > 100 µM (inactive) with Hs-578T; > 100 µM (inactive) with KM12; 29.4 µM (inactive) in the test with MDA-MB-231; > 100 µM (inactive) with OVCAR-5; > 100 µM (inactive) with RPMI-8226; > 100 µM (inactive) in the test on RXF 393. For the same compound, the GI50 is > 100 µM (inactive) with SF-268; > 100 µM (inactive) with SK-OV-3; > 100 µM (inactive) with T47D; 29.4 µM (inactive) in the test on TK-10; 37 µM (inactive) in the test on U-251; > 100 µM (inactive) in the test with UACC-257. The GI50 in the test on UO-31 is > 100 µM (inactive).
With `O=C(SC1=NCCN1)c1cccc2ccccc12`, the GI50 in the test with BT-549 was 64.7 µM (inactive); in the test on CAKI-1 it was > 100 µM (inactive); in the test on CCRF-CEM, 21.8 µM (inactive); in the test with DU-145 it was 67.5 µM (inactive); in the test with HCT-116, 41 µM (inactive); with HCT-15 it was 48.6 µM. Besides, the GI50 in the test on Hs-578T was 81.3 µM (inactive); in the test on KM12 it was 37 µM (inactive); in the test with MDA-MB-231, > 100 µM (inactive); with OVCAR-5 it was > 100 µM (inactive); in the test with RPMI-8226 it was 27.8 µM (inactive); in the test on RXF 393, 53.7 µM (inactive). Besides, the GI50 is > 100 µM (inactive) with SF-268; 44.5 µM (inactive) with SK-OV-3; 44.9 µM (inactive) in the test with T47D; > 100 µM (inactive) in the test on TK-10; 45.5 µM (inactive) in the test on U-251; 28.9 µM (inactive) with UACC-257. The GI50 in the test on UO-31 is 42.9 µM (inactive).
As to `COc1cc2c(/C=C3/C(=O)Nc4ccc(O)cc43)c(Cl)[nH]c2cc1C`, the GI50 was 0.139 µM (active) in the test on BT-549; 0.0893 µM (active) in the test with CAKI-1; 0.0462 µM (active) in the test on CCRF-CEM; 0.245 µM (active) in the test with DU-145; 0.0897 µM (active) in the test on HCT-116; 0.107 µM in the test with HCT-15. For the same compound, the GI50 is 0.0989 µM (active) with Hs-578T; 0.045 µM (active) in the test on KM12; 0.283 µM (active) in the test with MDA-MB-231; 0.618 µM (active) in the test with OVCAR-5; 0.275 µM (active) with RPMI-8226; 0.176 µM (active) in the test on RXF 393. For the same compound, the GI50 with SF-268 was 0.927 µM (active); in the test on SK-OV-3 it was 0.0627 µM (active); with T47D it was 0.0462 µM (active); in the test on TK-10, 0.398 µM (active); in the test with U-251 it was 0.0521 µM (active); in the test with UACC-257, 0.615 µM (active). Moreover, the GI50 in the test on UO-31 is 0.728 µM (active).
With `COc1ccccc1C(=O)OCC1CCCN2CCCCC12` (centres undefined), the GI50 in the test on BT-549 was 17.7 µM (inactive); with CAKI-1 it was > 100 µM (inactive); in the test on CCRF-CEM it was 18.6 µM (inactive); in the test with DU-145 it was > 100 µM (inactive); with HCT-116 it was 40.3 µM (inactive); in the test with HCT-15, 36.6 µM. Also, the GI50 in the test with Hs-578T was 59.7 µM (inactive); in the test with KM12, 18.2 µM (inactive); in the test with MDA-MB-231, 24.8 µM (inactive); in the test with RPMI-8226, 42.2 µM (inactive); with RXF 393, 22.2 µM (inactive); in the test with SF-268, 36.5 µM (inactive). Besides, the GI50 was > 100 µM (inactive) in the test with SK-OV-3; 16.1 µM (inactive) in the test with T47D; > 100 µM (inactive) in the test on TK-10; 26 µM (inactive) in the test with U-251; 31 µM (inactive) in the test with UACC-257; > 100 µM (inactive) in the test with UO-31.
Consider `Nc1nc(O)c2c(n1)NCN(CCCN1CCOCC1)C2`, for which the GI50 in the test on BT-549 is > 100 µM (inactive); in the test with CAKI-1, > 100 µM (inactive); in the test on DU-145 it was > 100 µM (inactive); with HCT-116, > 100 µM (inactive); with HCT-15, over 100 µM; in the test on Hs-578T it was > 100 µM (inactive). The GI50 in the test on KM12, in the test with MDA-MB-231, with OVCAR-5, in the test with RPMI-8226, in the test on SF-268 and in the test on SR was > 100 µM (inactive) each time. Besides, the GI50 with T47D, in the test on TK-10, with U-251, with UACC-257 and in the test with UO-31 was > 100 µM (inactive) throughout.
Take `COc1ccc(-n2sc3ncc(C)cc3c2=O)cc1`: the GI50 is 19.4 µM (inactive) in the test with BT-549; 10.6 µM (inactive) with CCRF-CEM; 21.7 µM (inactive) in the test with DU-145; 18.3 µM (inactive) in the test with HCT-116; 18.4 µM in the test with HCT-15; 30.6 µM (inactive) with Hs-578T. Further, the GI50 in the test on KM12 is 16.1 µM (inactive); in the test with MDA-MB-231, 17 µM (inactive); in the test on OVCAR-5, 20.1 µM (inactive); with RPMI-8226 it was 26.2 µM (inactive); with SF-268, 20.9 µM (inactive); in the test on SK-OV-3, 39.8 µM (inactive). The GI50 in the test with SR is 35.4 µM (inactive); in the test on T47D, 17.5 µM (inactive); in the test with TK-10, 19.1 µM (inactive); in the test on U-251, 22.4 µM (inactive); in the test with UO-31, 17.6 µM (inactive).
For the compound `COC(=O)[C@H](COC(=O)/C=C/c1ccc(OC(C)=O)c(OC(C)=O)c1)NC(=O)/C=C/c1ccc(OC(C)=O)c(OC(C)=O)c1`, the GI50 in the test with BT-549 is 16.3 µM (inactive); with CAKI-1, 14 µM (inactive); in the test on CCRF-CEM it was 5.98 µM (inactive); with DU-145, 14.1 µM (inactive); with HCT-116 it was 16.7 µM (inactive); in the test on HCT-15, 18.8 µM. Also, the GI50 in the test with Hs-578T is 21.7 µM (inactive); with KM12, 16.2 µM (inactive); in the test with MDA-MB-231, 17.7 µM (inactive); with OVCAR-5 it was 23.4 µM (inactive); with RPMI-8226, > 100 µM (inactive); in the test with RXF 393 it was 28.5 µM (inactive). Moreover, the GI50 in the test on SK-OV-3 was 22.2 µM (inactive); in the test on T47D, 2.81 µM (inactive); in the test on U-251, 29.1 µM (inactive); in the test with UACC-257, 20.5 µM (inactive).
`O=C(O)COc1cc(-c2ccccc2)nc2ccc(F)cc12`: the GI50 in the test with BT-549 was > 100 µM (inactive); in the test on CAKI-1, > 100 µM (inactive); in the test on CCRF-CEM, > 100 µM (inactive); in the test on DU-145 it was > 100 µM (inactive); in the test with HCT-116, > 100 µM (inactive); in the test on HCT-15, over 100 µM. Also, the GI50 with Hs-578T, in the test on KM12, in the test with MDA-MB-231, in the test on OVCAR-5, in the test with RPMI-8226 and in the test on SF-268 was > 100 µM (inactive) each time. Also, the GI50 with SK-OV-3 is > 100 µM (inactive); in the test on SR, > 100 µM (inactive); in the test on T47D, > 100 µM (inactive); in the test on TK-10 it was 0.0261 µM (active); with U-251 it was > 100 µM (inactive); in the test with UACC-257 it was > 100 µM (inactive). In addition, in the test with UO-31, the GI50 is 70 µM (inactive).
